Measured values published in patent US8063096B2, “Spirocyclic 3-phenyl-3substituted-4-ketolactams and-lactones” (Bayer Cropscience AG, priority 2001, dated 2011).

Experiments:
Format in all cases: in vivo
[1] = test system: Aphis gossypii; assay: Aphis gossypii test (leaf dip, cotton); conditions: 500 ppm active compound, cotton leaves dipped
Protocol: (§1) [table] To produce a suitable preparation of active compound, 1 part by weight of active compound is mixed with the stated amounts of solvent and emulsifier, and the concentrate is diluted with emulsifier-containing water to the desired concentration. Cotton leaves (Gossypium hirsutum) which are heavily infested by the cotton aphids (Aphis gossypii) are treated by being dipped into the preparation of active compound of the desired concentration. After the desired period of time, the kill in % is determined. 100% means that all aphids have been killed; 0% means that none of the aphids have been killed.

[2] = test system: Plutella xylostella; assay: Plutella test; conditions: 500 ppm active compound, cabbage leaves dipped
Protocol: (§2) [table] To produce a suitable preparation of active compound, 1 part by weight of active compound is mixed with the stated amounts of solvent and emulsifier, and the concentrate is diluted with emulsifier-containing water to the desired concentration. Cabbage leaves (Brassica oleracea) are treated by being dipped into the preparation of active compound of the desired concentration and are populated with caterpillars of the diamondback moth (Plutella xylostella) while leaves are still moist. After the desired period of time, the kill in % is determined. 100% means that all caterpillars have been killed; 0% means that none of the caterpillars have been killed.

[3] = test system: Aphis gossypii; assay: Test for persistency: Aphis gossypii (root-systemic action); conditions: 4 ppm in soil, cotton
Protocol: (§3) [table] To produce a suitable preparation of active compound, 1 part by weight of active compound is mixed with the stated amounts of solvent and emulsifier, and the concentrate is diluted with water to the desired concentration. The preparation of active compound is mixed intimately with the soil. The stated concentration refers to the amount of active compound per volume unit of soil (mg/l). The treated soil is filled into pots, and into these pots is planted cotton at the cotyledon stage. In this way, the active compound can be taken up from the soil into the roots of the plants and be transported into the leaves. After the stated number of days, cotton aphids (Aphis gossypii) are, in infection chambers, placed on the leaves. After the desired period of time, the kill in % is determined. 100% means that all aphids have been killed; 0% means that none of the aphids have been killed.

[4] = test system: Myzus persicae; assay: Test for persistency: Myzus persicae (root-systemic action); conditions: 4 ppm in soil, broad beans
Protocol: as §3, with “pre-germinated broad beans.” for “cotton at the cotyledon stage.”, “peach” for “cotton”, “(Myzus persicae)” for “(Aphis gossypii)”

[5] = test system: Phaedon cochleariae; assay: Phaedon larvae test; conditions: 500 ppm active compound, cabbage leaves dipped
Protocol: as §2, with “with larvae” for “with caterpillars”, “the mustard beetle (Phaedon cochleariae)” for “the diamondback moth (Plutella xylostella)”, “all beetle larvae” for “all caterpillars”, “the beetle larvae” for “the caterpillars”

[6] = test system: Alopecurus; assay: Post-emergence test, Alopecurus; conditions: post-emergence/greenhouse; 250 g of ai/ha; after three weeks
Protocol: (§4) [table] To produce a suitable preparation of active compound, 1 part by weight of active compound is mixed with the stated amount of solvent, the stated amount of emulsifier is added and the concentrate is diluted with water to the desired concentration. Test plants of a height of 5-15 cm are sprayed with the preparation of active compound such that the particular amounts of active compound desired are applied per unit area. The concentration of the spray liquor is chosen such that the particular amounts of active compound desired are applied in 1000 l of water/ha. After three weeks, the degree of damage to the plants is rated in % damage in comparison to the development of the untreated control. The figures denote: • 0%=no effect (=like untreated control) • 100%=total destruction

[7] = test system: Avena fatua; assay: Post-emergence test, Avena fatua; conditions: post-emergence/greenhouse; 250 g of ai/ha; after three weeks
Protocol: as §4

[8] = test system: Echinochloa; assay: Post-emergence test, Echinochloa; conditions: post-emergence/greenhouse; 250 g of ai/ha; after three weeks
Protocol: as §4

[9] = test system: Setaria; assay: Post-emergence test, Setaria; conditions: post-emergence/greenhouse; 250 g of ai/ha; after three weeks
Protocol: as §4

[10] = test system: Sinapis; assay: Post-emergence test, Sinapis; conditions: post-emergence/greenhouse; 250 g of ai/ha; after three weeks
Protocol: as §4

[11] = test system: Sugar beet; assay: Post-emergence test, Sugar beet; conditions: post-emergence/greenhouse; 250 g of ai/ha; after three weeks; crop
Protocol: as §4

[12] = test system: Alopecurus; assay: Pre-emergence test, Alopecurus; conditions: pre-emergence/greenhouse; 250 g of ai/ha; after three weeks
Protocol: (§5) [table] To produce a suitable preparation of active compound, 1 part by weight of active compound is mixed with the stated amount of solvent, the stated amount of emulsifier is added and the concentrate is diluted with water to the desired concentration. Seeds of the test plants are sown in normal soil. After about 24 hours, the soil is sprayed with the preparation of active compound such that the particular amounts of active compound desired are applied per unit area. The concentration of the spray liquor is chosen such that the particular amounts of active compound desired are applied in 1000 l of water/ha. After three weeks, the degree of damage to the plants is rated in % damage in comparison to the development of the untreated control. The figures denote: • 0%=no effect (like untreated control) • 100%=total destruction

[13] = test system: Avena fatua; assay: Pre-emergence test, Avena fatua; conditions: pre-emergence/greenhouse; 250 g of ai/ha; after three weeks
Protocol: as §5

[14] = test system: Echinochloa; assay: Pre-emergence test, Echinochloa; conditions: pre-emergence/greenhouse; 250 g of ai/ha; after three weeks
Protocol: as §5

[15] = test system: Setaria; assay: Pre-emergence test, Setaria; conditions: pre-emergence/greenhouse; 250 g of ai/ha; after three weeks
Protocol: as §5

[16] = test system: Sugar beet; assay: Pre-emergence test, Sugar beet; conditions: pre-emergence/greenhouse; 250 g of ai/ha; after three weeks; crop
Protocol: as §5

[17] = test system: Spodoptera frugiperda; assay: Spodoptera frugiperda test; conditions: 500 ppm active compound, cabbage leaves dipped
Protocol: as §2, with “army worm (Spodoptera frugiperda)” for “diamondback moth (Plutella xylostella)”

[18] = test system: Tetranychus urticae; assay: Tetranychus test (OP-resistant/dip treatment); conditions: 100 ppm active compound, bean plants dipped, OP-resistant
Protocol: [table] To produce a suitable preparation of active compound, 1 part by weight of active compound is mixed with the stated amounts of solvent and emulsifier, and the concentrate is diluted with emulsifier-containing water to the desired concentration. Bean plants (Phaseolus vulgaris) which are heavily infested by all stages of the greenhouse […] spider mite (Tetranychus urticae) are dipped into a preparation of active compound of the desired concentration. After the desired period of time, the activity in % is determined. 100% means that all spider mites have been killed; 0% means that none of the spider mites have been killed.

[19] = test system: Amaranthus; assay: Pre-emergence test, Amaranthus; conditions: pre-emergence/greenhouse; 250 g of ai/ha; after three weeks
Protocol: as §5

[20] = test system: Sinapis; assay: Pre-emergence test, Sinapis; conditions: pre-emergence/greenhouse; 250 g of ai/ha; after three weeks
Protocol: as §5

[21] = test system: Amaranthus; assay: Post-emergence test, Amaranthus; conditions: post-emergence/greenhouse; 250 g of ai/ha; after three weeks
Protocol: as §4

[22] = test system: Myzus persicae; assay: Myzus test (leaf dip, cabbage); conditions: 500 ppm active compound, cabbage leaves dipped
Protocol: as §1, with “Cabbage” for “Cotton”, “(Brassica oleracea)” for “(Gossypium hirsutum)”, “peach” for “the cotton”, “(Myzus persicae)” for “(Aphis gossypii)”

[23] = test system: Meloidogyne incognita; assay: Meloidogyne test (gall formation on lettuce roots); conditions: 20 ppm active compound, nematicidal action by gall formation
Protocol: [table] To produce a suitable preparation of active compound, 1 part by weight of active compound is mixed with the stated amounts of solvent and emulsifier, and the concentrate is diluted with water to the desired concentration. Vessels are filled with sand, solution of active compound, Meloidogyne incognita egg/larvae suspension and lettuce seeds. The lettuce seeds germinate and the plants develop. On the roots, galls develop. After the desired period of time, the nematicidal action is determined in % by the formation of galls. 100% means that no galls have been found; 0% means that the number of galls on the treated plants corresponds to that of the untreated control.

| SMILES | Kill rate in % after 7d [2] [%] | % damage, Alopecurus [6] [%] | % damage, Avena fatua [7] [%] | % damage, Echinochloa [8] [%] | % damage, Setaria [9] [%] | % damage, Sinapis [10] [%] | % damage, Sugar beet [11] [%] | % damage, Alopecurus [12] [%] | % damage, Avena fatua [13] [%] | % damage, Echinochloa [14] [%] | % damage, Setaria [15] [%] | % damage, Sugar beet [16] [%] | % damage, Sinapis [20] [%] | Kill rate in % after 6d [22] [%] | other results |
| --- | --- | --- | --- | --- | --- | --- | --- | --- | --- | --- | --- | --- | --- | --- | --- |
| Cc1cc(Br)cc(C)c1C1(Cl)C(=O)NC2(CCOCC2)C1=O (centres unmarked) [Ex. I-1-c-3] | 100 |  |  |  |  |  |  |  |  |  |  |  |  |  | Kill rate in % after 6d [1]: 90%; Kill rate in % after 7d ([3]; infection after 7 d): 100%; Kill rate in % after 7d ([3]; infection after 21 d): 98^ %; Kill rate in % after 7d ([3]; infection after 35 d): 98^ %; Kill rate in % after 7d ([4]; infection after 7 d): 99%; Kill rate in % after 7d ([4]; infection after 21 d): 100%; Kill rate in % after 7d ([4]; infection after 35 d): 99% |
| CCc1cc(Br)cc(C)c1C1(Cl)C(=O)NC2(CCC(OC)CC2)C1=O (centres unmarked) [Ex. I-1-a-26] |  | 100 | 100 | 100 | 100 | 80 | 0 |  |  |  |  |  |  |  | Kill rate in % after 7d [5]: 100% |
| COC1CCC2(CC1)NC(=O)C(Cl)(c1cc(C)ccc1Br)C2=O (centres unmarked) [Ex. I-1-a-28] | 100 |  |  |  |  |  |  |  |  |  |  |  |  |  | Kill rate in % after 6d [1]: 90%; Kill rate in % after 7d [5]: 100% |
| Cc1cc(Br)cc(Cl)c1C1(Cl)C(=O)NC2(CCOCC2)C1=O (centres unmarked) [Ex. I-1-c-2] | 100 |  |  |  |  |  |  |  |  |  |  |  |  |  | Kill rate in % after 7d ([3]; infection after 7 d): 100%; Kill rate in % after 7d ([3]; infection after 21 d): 98^ %; Kill rate in % after 7d ([3]; infection after 35 d): 98^ %; Kill rate in % after 7d ([4]; infection after 7 d): 100%; Kill rate in % after 7d ([4]; infection after 21 d): 100%; Kill rate in % after 7d ([4]; infection after 35 d): 99% |
| CCc1cc(Br)cc(C)c1C1(Cl)C(=O)NC2(CCCOC2)C1=O (centres unmarked) [Ex. I-1-b-12] |  | 90 | 100 | 100 | 100 |  | 0 | 95 | 100 | 100 | 100 | 0 |  |  |  |
| COC1CCC2(CC1)NC(=O)C(Cl)(c1c(C)cc(C)cc1Cl)C2=O (centres unmarked) [Ex. I-1-a-8] |  | 100 | 90 | 100 | 100 | 80 |  | 100 | 100 | 100 | 100 |  | 100 |  | Kill rate in % after 7d [17]: 100%; Kill rate in % after 7d [18]: 100%; % damage, Amaranthus [19]: 100%; % damage, Amaranthus [21]: 90% |
| COC1CCC2(CC1)NC(=O)C(Cl)(c1c(C)cc(Br)cc1Cl)C2=O (centres unmarked) [Ex. I-1-a-10] |  | 90 | 90 | 100 | 100 | 80 |  | 100 | 90 | 100 | 100 |  | 90 | 99 | % damage, Amaranthus [19]: 80%; % damage, Amaranthus [21]: 80% |
| CCc1cc(Br)cc(Cl)c1C1(Cl)C(=O)NC2(CCC(OC)CC2)C1=O (centres unmarked) [Ex. I-1-a-44] |  | 95 | 100 | 100 | 100 | 70 | 0 | 100 | 100 | 100 | 100 | 0 | 80 | 98 |  |
| COC1CCC2(CC1)NC(=O)C(Cl)(c1ccc(C)cc1Cl)C2=O (centres unmarked) [Ex. I-1-a-3] |  |  |  |  |  |  |  |  |  |  |  |  |  |  | Kill rate in % after 7d [17]: 100% |
| CCc1cc(Cl)cc(CC)c1C1(Cl)C(=O)NC2(CCC(OC)CC2)C1=O (centres unmarked) [Ex. I-1-a-43] |  | 90 | 100 | 100 | 100 | 70 | 0 | 95 | 100 | 100 | 100 | 0 |  | 90 | Kill rate in % after 14d [23]: 95% |
